Experimental data from patent US6407112B1, “Optically active tetrahydrobenzindole derivative” (Meiji Seika Kaisha, Ltd., priority 1998, dated 2002).
Read-outs that look alike come from different tables or passages of the source.

Tests used:
[1] = target: T1, cloned human 5-HT7 receptor (Homo sapiens, UniProt P34969); assay: 5-HT7 receptor-binding assay ([3H]-5CT); conditions: for Selectivity (ratio of Ki (5-HT2) with Ki (5-HT7)): Ki (5-HT2, rat cortex) / Ki (5-HT7, cloned human)
T1 construct: expressed in transfected cells
T1 sequence (P34969 whole entry): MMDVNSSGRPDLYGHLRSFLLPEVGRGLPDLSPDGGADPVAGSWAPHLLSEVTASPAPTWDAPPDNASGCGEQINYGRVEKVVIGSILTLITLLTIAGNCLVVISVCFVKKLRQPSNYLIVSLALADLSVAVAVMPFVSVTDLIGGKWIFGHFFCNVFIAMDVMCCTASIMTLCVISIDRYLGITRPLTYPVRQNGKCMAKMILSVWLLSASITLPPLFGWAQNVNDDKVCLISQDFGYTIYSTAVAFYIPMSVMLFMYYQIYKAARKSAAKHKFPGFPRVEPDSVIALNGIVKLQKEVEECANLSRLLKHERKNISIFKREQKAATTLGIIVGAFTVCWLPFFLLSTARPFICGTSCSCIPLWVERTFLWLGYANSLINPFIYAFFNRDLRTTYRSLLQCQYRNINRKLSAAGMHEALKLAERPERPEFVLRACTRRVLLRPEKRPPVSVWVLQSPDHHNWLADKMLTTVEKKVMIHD
Experimental: 5-HT7 Receptor-binding Assay
Membranes from culture cells expressing cloned human 5-HT7 receptor were harvested and homogenized in 50 mM Tris-HCl assay buffer (pH 7.4) containing 10 mM MgCl2 and 0.5 mM EDTA with a potter-type homogenizer, and the suspension was centrifuged at 4° C., 39,000×g for 20 minutes. The resulting pellet was resuspended in the assay buffer at a proportion of 1 ml per an amount of a piece of culture petri dish having a diameter of 10 cm, and homogenized again.
The incubation was terminated by rapid filtration through GB/B filter, washed with 6 ml of ice-cold 50 mM Tris-HCl buffer (pH 7.4). The bound radioactivity was determined by liquid scintillation counter. While, non-specific binding was determined in the presence of 10 μM metergoline. The specific binding was calculated from the bound radioactivity after subtraction of non-specific binding.

[2] = target: T2, 5-HT2 receptor (rat cerebral cortex P2 fraction) (Rattus norvegicus, UniProt P14842); assay: 5-HT2 receptor-binding assay ([3H]ketanserin)
T2 construct: Rat cerebral cortex was homogenized in 10 volumes of 0.32 M sucrose solution; from tissue; host or cells: rat cerebral cortex, P2 membrane fraction
T2 sequence (P14842 whole entry): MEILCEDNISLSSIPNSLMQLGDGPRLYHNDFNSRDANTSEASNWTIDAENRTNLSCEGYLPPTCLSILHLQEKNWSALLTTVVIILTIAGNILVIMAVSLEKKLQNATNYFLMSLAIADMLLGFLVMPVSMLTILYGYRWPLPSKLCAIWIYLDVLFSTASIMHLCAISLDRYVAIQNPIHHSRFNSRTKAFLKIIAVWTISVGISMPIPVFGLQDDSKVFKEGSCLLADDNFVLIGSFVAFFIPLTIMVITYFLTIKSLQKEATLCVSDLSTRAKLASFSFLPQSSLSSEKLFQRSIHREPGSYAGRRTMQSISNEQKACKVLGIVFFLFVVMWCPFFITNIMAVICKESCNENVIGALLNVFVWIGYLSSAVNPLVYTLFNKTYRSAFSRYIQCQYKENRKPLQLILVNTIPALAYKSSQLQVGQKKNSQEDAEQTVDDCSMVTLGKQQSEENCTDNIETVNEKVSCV
Experimental: 5-HT2 Receptor-binding Assay
Rat cerebral cortex was homogenized in 10 volumes of 0.32 M sucrose solution. The supernatant obtained by centrifuging at 900×g for 10 minutes was further centrifuged at 11,500×g for 20 minutes. The pellet was resuspended in 50 mM Tris-HCl buffer (pH 7.4) and then centrifuged at 39,900×g for 20 minutes. The final pellet was used a P2 fraction.
P2 fraction was incubated in 50 mM tris-HCl buffer (pH 7.4) containing 1 nM [^3H]ketanserin and the compound of the present invention at 37° C. for 15 minutes and terminated by rapid filtration through GF/B filters. The bound radioactivity was determined by liquid scintillation counter. While, non-specific binding was determined in the presence of 10 μM ketanserin. Thus, the specific binding was calculated from the bound radioactivity after the subtraction of non-specific binding.

[3] = rat cerebral cortex P2 fraction, 1 nM [3H]ketanserin, 37° C., 15 minutes, Ki calculated from IC50, read-out: Receptor Binding Affinity Ki Value (5-HT2)
[4] = membranes of cultured cells expressing cloned human 5-HT7 receptor, 1 nM [3H]-5CT, 37° C., 30 minutes, Ki calculated from IC50, read-out: Receptor Binding Affinity Ki Value (5-HT7)

| SMILES | Selectivity (ratio of Ki (5-HT2) with Ki (5-HT7)) [1] | Ki [2, 3] [nM] | Ki [1, 4] [nM] | Ki [1] [nM] | Ki [2] [nM] |
| --- | --- | --- | --- | --- | --- |
| COc1ccccc1N1CCN(CCCCC23CCCc4cccc(c42)NC3=O)CC1 (racemic) [Racemic Mixture of Synthesis Example 14, reference compound] | 7 | 60 |  |  |  |
| CN(C)C(=O)n1c2c(c3ccccc31)CCN(CCCCC13CCCc4cccc(c41)NC3=O)C2 (racemic) [Racemic Mixture of Synthesis Example 17, reference compound] | 121 | 970 | 8 |  |  |
| CN(C)C(=O)n1c2c(c3ccccc31)CCN(CCCC[C@@]13CCCc4cccc(c41)NC3=O)C2 [Synthesis Example 17, (S)-2a-[4-(9-dimethylcarbamoyl-2,3,4,9-tetrahydro-1H-pyrido[3,4-b]indol-2-yl)-butyl]-2a,3,4,5-tetrahydro-1H-benz[cd]indol-2-one] | >250 | > 1000 | 4 |  |  |
| O=C1Nc2cccc3c2C1(CCCCN1CC=C(c2ccccc2)CC1)CCC3 (racemic) [Racemic Mixture of Synthesis Example 15, reference compound] | 10 |  |  | 9 | 92 |
| O=C1Nc2cccc3c2C1(CCCCN1CCc2ccccc2C1)CCC3 (racemic) [Racemic Mixture of Synthesis Example 18, reference compound] | 79 | 628 | 8 |  |  |
| O=C1Nc2cccc3c2[C@@]1(CCCCN1CCc2ccccc2C1)CCC3 [Synthesis Example 18, (S)-2a-(4-(1,2,3,4-tetrahydroisoquinolin-2-yl)-butyl)-2a,3,4,5-tetrahydro-1H-benz[cd]indol-2-one] | >125 | > 1000 | 7.7 |  |  |
| O=C1Nc2cccc3c2[C@@]1(CCCCN1CC=C(c2ccccc2)CC1)CCC3 [Synthesis Example 15, (S)-2a-(4-(4-phenyl-1,2,3,6-tetrahydropyridin)-1-ylbutyl)-2a,3,4,5-tetrahydro-1H-benz[cd]indol-2-one] | 32 |  |  | 1.3 | 42 |
| COc1ccccc1N1CCN(CCCC[C@@]23CCCc4cccc(c42)NC3=O)CC1 [Synthesis Example 14, (S)-2a-(4-(4-(2-methoxyphenyl)piperazinyl)butyl)-2a,3,4,5-tetrahydro-1H-benz[cd]indol-2-one] | 49 | 84 | 1.7 |  |  |
| CNC(=O)Cn1c2c(c3ccccc31)CCN(CCCCC13CCCc4cccc(c41)NC3=O)C2 (racemic) [Racemic Mixture of Synthesis Example 22, reference compound] | >278 | > 1000 | 3.6 |  |  |
| CNC(=O)Cn1c2c(c3ccccc31)CCN(CCCC[C@@]13CCCc4cccc(c41)NC3=O)C2 [Synthesis Example 22, (S)-2a-(4-(9-methylcarbamoylmethyl-2,3,4,9-tetrahydro-1H-pyrido[3,4-b]indol-2-yl)butyl)-2a,3,4,5-tetrahydro-1H-benz[cd]indol-2-one] | >667 | > 1000 | 1.5 |  |  |
